Assay results taken from ChEMBL document CHEMBL3044736, “Synthesis, characterization, solvatochromic properties, and antimicrobial evaluation of 5-acetyl-2-thioxo-dihydro-pyrimidine-4,6-dione-based chalcones” (2013).
Values after ≈ are worked out from the molar mass of the structure shown.

Assays:
Format in all cases: functional
[1] = test system: Penicillium; assay: Antimicrobial activity against Penicillium wild strain assessed as diameter of growth inhibition zone at 250 ug/ml after 48-96 hr by agar cup diffusion method; details: read-out: DIZ
[2] = test system: Penicillium; assay: Antimicrobial activity against Penicillium wild strain assessed as diameter of growth inhibition zone at 100 ug/ml after 48-96 hr by agar cup diffusion method; details: read-out: DIZ
[3] = test system: Trichophyton rubrum; assay: Antimicrobial activity against Trichophyton rubrum MTCC 296 assessed as diameter of growth inhibition zone at 100 ug/ml after 48-96 hr by agar cup diffusion method; details: read-out: DIZ
[4] = test system: Aspergillus clavatus; assay: Antimicrobial activity against Aspergillus clavatus MTCC 1323 assessed as diameter of growth inhibition zone at 100 ug/ml after 48-96 hr by agar cup diffusion method; details: read-out: DIZ
[5] = test system: Candida albicans; assay: Antimicrobial activity against Candida albicans MTCC 227 assessed as diameter of growth inhibition zone at 100 ug/ml after 48-96 hr by agar cup diffusion method; details: read-out: DIZ
[6] = test system: Penicillium; assay: Antimicrobial activity against Penicillium wild strain assessed as diameter of growth inhibition zone at 50 ug/ml after 48-96 hr by agar cup diffusion method; details: read-out: DIZ
[7] = test system: Trichophyton rubrum; assay: Antimicrobial activity against Trichophyton rubrum MTCC 296 assessed as diameter of growth inhibition zone at 50 ug/ml after 48-96 hr by agar cup diffusion method; details: read-out: DIZ
[8] = test system: Aspergillus clavatus; assay: Antimicrobial activity against Aspergillus clavatus MTCC 1323 assessed as diameter of growth inhibition zone at 50 ug/ml after 48-96 hr by agar cup diffusion method; details: read-out: DIZ
[9] = test system: Candida albicans; assay: Antimicrobial activity against Candida albicans MTCC 227 assessed as diameter of growth inhibition zone at 50 ug/ml after 48-96 hr by agar cup diffusion method; details: read-out: DIZ
[10] = test system: Penicillium; assay: Antimicrobial activity against Penicillium wild strain assessed as diameter of growth inhibition zone at 25 ug/ml after 48-96 hr by agar cup diffusion method; details: read-out: DIZ
[11] = test system: Trichophyton rubrum; assay: Antimicrobial activity against Trichophyton rubrum MTCC 296 assessed as diameter of growth inhibition zone at 25 ug/ml after 48-96 hr by agar cup diffusion method; details: read-out: DIZ
[12] = test system: Aspergillus clavatus; assay: Antimicrobial activity against Aspergillus clavatus MTCC 1323 assessed as diameter of growth inhibition zone at 25 ug/ml after 48-96 hr by agar cup diffusion method; details: read-out: DIZ
[13] = test system: Candida albicans; assay: Antimicrobial activity against Candida albicans MTCC 227 assessed as diameter of growth inhibition zone at 25 ug/ml after 48-96 hr by agar cup diffusion method; details: read-out: DIZ
[14] = test system: Penicillium; assay: Antimicrobial activity against Penicillium wild strain by agar cup diffusion method
[15] = test system: Aspergillus clavatus; assay: Antimicrobial activity against Aspergillus clavatus MTCC 1323 by agar cup diffusion method
[16] = test system: Pseudomonas aeruginosa; assay: Antimicrobial activity against Pseudomonas aeruginosa MTCC 1688 assessed as diameter of growth inhibition zone at 25 ug/ml after 18-24 hr by agar cup diffusion method; details: read-out: DIZ
[17] = test system: Escherichia coli; assay: Antimicrobial activity against Escherichia coli MTCC 443 assessed as diameter of growth inhibition zone at 25 ug/ml after 18-24 hr by agar cup diffusion method; details: read-out: DIZ
[18] = test system: Staphylococcus aureus; assay: Antimicrobial activity against Staphylococcus aureus MTCC 96 assessed as diameter of growth inhibition zone at 25 ug/ml after 18-24 hr by agar cup diffusion method; details: read-out: DIZ
[19] = test system: Streptococcus pyogenes; assay: Antimicrobial activity against Streptococcus pyogenes MTCC 442 assessed as diameter of growth inhibition zone at 25 ug/ml after 18-24 hr by agar cup diffusion method; details: read-out: DIZ
[20] = test system: Klebsiella pneumoniae; assay: Antimicrobial activity against Klebsiella pneumoniae MTCC 109 by agar cup diffusion method
[21] = test system: Escherichia coli; assay: Antimicrobial activity against Escherichia coli MTCC 443 by agar cup diffusion method
[22] = test system: Pseudomonas aeruginosa; assay: Antimicrobial activity against Pseudomonas aeruginosa MTCC 1688 by agar cup diffusion method
[23] = test system: Staphylococcus aureus; assay: Antimicrobial activity against Staphylococcus aureus MTCC 96 by agar cup diffusion method
[24] = test system: Streptococcus pyogenes; assay: Antimicrobial activity against Streptococcus pyogenes MTCC 442 by agar cup diffusion method
[25] = test system: Trichophyton rubrum; assay: Antimicrobial activity against Trichophyton rubrum MTCC 296 by agar cup diffusion method
[26] = test system: Candida albicans; assay: Antimicrobial activity against Candida albicans MTCC 227 by agar cup diffusion method
[27] = test system: Klebsiella pneumoniae; assay: Antimicrobial activity against Klebsiella pneumoniae MTCC 109 assessed as diameter of growth inhibition zone at 250 ug/ml after 18-24 hr by agar cup diffusion method; details: read-out: DIZ
[28] = test system: Pseudomonas aeruginosa; assay: Antimicrobial activity against Pseudomonas aeruginosa MTCC 1688 assessed as diameter of growth inhibition zone at 250 ug/ml after 18-24 hr by agar cup diffusion method; details: read-out: DIZ
[29] = test system: Escherichia coli; assay: Antimicrobial activity against Escherichia coli MTCC 443 assessed as diameter of growth inhibition zone at 250 ug/ml after 18-24 hr by agar cup diffusion method; details: read-out: DIZ
[30] = test system: Staphylococcus aureus; assay: Antimicrobial activity against Staphylococcus aureus MTCC 96 assessed as diameter of growth inhibition zone at 250 ug/ml after 18-24 hr by agar cup diffusion method; details: read-out: DIZ
[31] = test system: Streptococcus pyogenes; assay: Antimicrobial activity against Streptococcus pyogenes MTCC 442 assessed as diameter of growth inhibition zone at 250 ug/ml after 18-24 hr by agar cup diffusion method; details: read-out: DIZ
[32] = test system: Klebsiella pneumoniae; assay: Antimicrobial activity against Klebsiella pneumoniae MTCC 109 assessed as diameter of growth inhibition zone at 100 ug/ml after 18-24 hr by agar cup diffusion method; details: read-out: DIZ
[33] = test system: Pseudomonas aeruginosa; assay: Antimicrobial activity against Pseudomonas aeruginosa MTCC 1688 assessed as diameter of growth inhibition zone at 100 ug/ml after 18-24 hr by agar cup diffusion method; details: read-out: DIZ
[34] = test system: Escherichia coli; assay: Antimicrobial activity against Escherichia coli MTCC 443 assessed as diameter of growth inhibition zone at 100 ug/ml after 18-24 hr by agar cup diffusion method; details: read-out: DIZ
[35] = test system: Staphylococcus aureus; assay: Antimicrobial activity against Staphylococcus aureus MTCC 96 assessed as diameter of growth inhibition zone at 100 ug/ml after 18-24 hr by agar cup diffusion method; details: read-out: DIZ
[36] = test system: Streptococcus pyogenes; assay: Antimicrobial activity against Streptococcus pyogenes MTCC 442 assessed as diameter of growth inhibition zone at 100 ug/ml after 18-24 hr by agar cup diffusion method; details: read-out: DIZ
[37] = test system: Klebsiella pneumoniae; assay: Antimicrobial activity against Klebsiella pneumoniae MTCC 109 assessed as diameter of growth inhibition zone at 50 ug/ml after 18-24 hr by agar cup diffusion method; details: read-out: DIZ
[38] = test system: Pseudomonas aeruginosa; assay: Antimicrobial activity against Pseudomonas aeruginosa MTCC 1688 assessed as diameter of growth inhibition zone at 50 ug/ml after 18-24 hr by agar cup diffusion method; details: read-out: DIZ
[39] = test system: Escherichia coli; assay: Antimicrobial activity against Escherichia coli MTCC 443 assessed as diameter of growth inhibition zone at 50 ug/ml after 18-24 hr by agar cup diffusion method; details: read-out: DIZ
[40] = test system: Staphylococcus aureus; assay: Antimicrobial activity against Staphylococcus aureus MTCC 96 assessed as diameter of growth inhibition zone at 50 ug/ml after 18-24 hr by agar cup diffusion method; details: read-out: DIZ
[41] = test system: Streptococcus pyogenes; assay: Antimicrobial activity against Streptococcus pyogenes MTCC 442 assessed as diameter of growth inhibition zone at 50 ug/ml after 18-24 hr by agar cup diffusion method; details: read-out: DIZ
[42] = test system: Klebsiella pneumoniae; assay: Antimicrobial activity against Klebsiella pneumoniae MTCC 109 assessed as diameter of growth inhibition zone at 25 ug/ml after 18-24 hr by agar cup diffusion method; details: read-out: DIZ
[43] = test system: Trichophyton rubrum; assay: Antimicrobial activity against Trichophyton rubrum MTCC 296 assessed as diameter of growth inhibition zone at 250 ug/ml after 48-96 hr by agar cup diffusion method; details: read-out: DIZ
[44] = test system: Aspergillus clavatus; assay: Antimicrobial activity against Aspergillus clavatus MTCC 1323 assessed as diameter of growth inhibition zone at 250 ug/ml after 48-96 hr by agar cup diffusion method; details: read-out: DIZ
[45] = test system: Candida albicans; assay: Antimicrobial activity against Candida albicans MTCC 227 assessed as diameter of growth inhibition zone at 250 ug/ml after 48-96 hr by agar cup diffusion method; details: read-out: DIZ

`O=C(/C=C/c1ccccc1O)C1C(=O)NC(=S)NC1=O` showed a zone of inhibition at 250 µg/mL [1] of 23 mm, a zone of inhibition at 100 µg/mL [2] of 22 mm and a zone of inhibition at 100 µg/mL [3] of 21 mm. It also gave a zone of inhibition at 100 µg/mL [4] of 20 mm, a zone of inhibition at 100 µg/mL [5] of 22 mm and a zone of inhibition at 50 µg/mL [6] of 19 mm. It also gave a zone of inhibition at 50 µg/mL [7] of 21 mm, a zone of inhibition at 50 µg/mL [8] of 19 mm and a zone of inhibition at 50 µg/mL [9] of 19 mm. The zone of inhibition at 25 µg/mL [10] was 18 mm, the zone of inhibition at 25 µg/mL [11] was 18 mm and the zone of inhibition at 25 µg/mL [12] was 18 mm. For the same compound, the zone of inhibition at 25 µg/mL [13] was 17 mm, the MFC [14] was greater than 1000 µg/mL and the MIC [14] was greater than 1000 µg/mL. For the same compound, the MFC [15] was greater than 1000 µg/mL, the MIC [15] was greater than 1000 µg/mL and the zone of inhibition at 25 µg/mL [16] was 11 mm. The zone of inhibition at 25 µg/mL [17] was 13 mm, the zone of inhibition at 25 µg/mL [18] was 11 mm and the zone of inhibition at 25 µg/mL [19] was 13 mm. It also gave an MBC [20] of 250 µg/mL (≈ 861 µM), an MIC [20] of 200 µg/mL (≈ 689 µM) and an MBC [21] of 200 µg/mL (≈ 689 µM). It also gave an MIC [21] of 125 µg/mL (≈ 431 µM), an MBC [22] of 250 µg/mL (≈ 861 µM) and an MIC [22] of 250 µg/mL (≈ 861 µM). The MBC [23] was 500 µg/mL (≈ 1720 µM), the MIC [23] was 500 µg/mL (≈ 1720 µM) and the MBC [24] was 200 µg/mL (≈ 689 µM). It also gave an MIC [24] of 125 µg/mL (≈ 431 µM), an MFC [25] greater than 1000 µg/mL and an MIC [25] greater than 1000 µg/mL. For the same compound, the MFC [26] was greater than 1000 µg/mL, the MIC [26] was 1000 µg/mL (≈ 3440 µM) and the zone of inhibition at 250 µg/mL [27] was 17 mm. For the same compound, the zone of inhibition at 250 µg/mL [28] was 19 mm, the zone of inhibition at 250 µg/mL [29] was 17 mm and the zone of inhibition at 250 µg/mL [30] was 19 mm. For the same compound, the zone of inhibition at 250 µg/mL [31] was 17 mm, the zone of inhibition at 100 µg/mL [32] was 15 mm and the zone of inhibition at 100 µg/mL [33] was 17 mm. For the same compound, the zone of inhibition at 100 µg/mL [34] was 16 mm, the zone of inhibition at 100 µg/mL [35] was 17 mm and the zone of inhibition at 100 µg/mL [36] was 16 mm. For the same compound, the zone of inhibition at 50 µg/mL [37] was 13 mm, the zone of inhibition at 50 µg/mL [38] was 13 mm and the zone of inhibition at 50 µg/mL [39] was 15 mm. The zone of inhibition at 50 µg/mL [40] was 13 mm, the zone of inhibition at 50 µg/mL [41] was 15 mm and the zone of inhibition at 25 µg/mL [42] was 12 mm. It also gave a zone of inhibition at 250 µg/mL [43] of 22 mm, a zone of inhibition at 250 µg/mL [44] of 22 mm and a zone of inhibition at 250 µg/mL [45] of 24 mm.
